Laboratory results published in US12670969B2, “Network medicine framework for identifying drug repurposing opportunities” (Northeastern University, priority 2020, dated 2026).

Assays:
[1] = test system: SARS-CoV-2; conditions: positive control used at 5 μM; cited from earlier work
[2] = test system: SARS-CoV-2 strain USA-WA1/2020; format: cell-based; conditions: VeroE6 cells, drugs from 8 μM down to 8 nM
[3] = test system: Huh7 cells; conditions: in high concentration
[4] = test system: Caco-2; conditions: Caco-2 cells; cited from earlier work

CC(C)C[C@H](NC(=O)[C@H]1O[C@@H]1C(=O)O)C(=O)NCCCCN=C(N)N [E-64]
inhibition of SARS-CoV-2 infection, previously reported [1]: inhibit SARS-CoV-2 infection

CC(C)c1nc(CN(C)C(=O)N[C@H](C(=O)N[C@@H](Cc2ccccc2)C[C@H](O)[C@H](Cc2ccccc2)NC(=O)OCc2cncs2)C(C)C)cs1 [Ritonavir]
outcome in VeroE6 screen, in words [2]: no effect

CN(C)CCC=C1c2ccccc2CCc2ccccc21 [amitriptyline]
outcome in VeroE6 screen, in words [2]: S&W

CC(=O)OC[C@H]1O[C@@H]([S-])[C@H](OC(C)=O)[C@@H](OC(C)=O)[C@@H]1OC(C)=O.CCP(CC)CC.[Au+] [auranofin]
cytotoxicity in Huh7 cells (reduced nuclei count) [3]: tracing cytotoxicity

CN1CCCC(n2nc(Cc3ccc(Cl)cc3)c3ccccc3c2=O)CC1 (stereo not drawn) [azelastine]
cytotoxicity in Huh7 cells (reduced nuclei count) [3]: tracing cytotoxicity

CCN(CC)CCCC(C)Nc1ccnc2cc(Cl)ccc12 (stereo not drawn) [chloroquine]
outcome in VeroE6 screen, in words [2]: positive outcomes

CCN(CCO)CCCC(C)Nc1ccnc2cc(Cl)ccc12 (stereo not drawn) [hydroxychloroquine]
outcome in VeroE6 screen, in words [2]: positive outcomes

CCOC(=O)N1CCC(=C2c3ccc(Cl)cc3CCc3cccnc32)CC1 [loratadine]
drug-response classification (S, W, C, N) of effect on SARS-CoV-2 infection ([2]; MOI about 0.2): N
viral activity in human cell line Caco-2 [4]: inhibited viral activity
